# From patent US12310952B2, “Traditional Chinese drug monomer composition for treating Helicobacter pylori, preparation method and use thereof” (YOUJIANG MEDICAL UNIVERSITY FOR NATIONALITIES, priority 2023, dated 2025)
# Where two headings read alike, the source gives them in different places.
# Key:
# Type in all cases: cell-based
# Helicobacter pylori (Hp) = test: screening of antibacterial components of traditional Chinese drug, MIC against Hp; settings: monomer alone
# Source text: The combination of different monomer compositions can resist bacteria, increase the action target of the composition, be conducive to improve the antibacterial effect and reduce the drug resistance of the composition. Therefore, in the present disclosure, according to the quality ratio of Zuojin pills, berberine, evolitrine, and tanshinone I are combined according to a certain quality ratio to inhibit Hp. This combination can synergistically enhance the inhibition of Hp, and is not easy to produce drug resistance, which has an extremely excellent effect on the treatment of Hp infection related diseases.
# Helicobacter pylori = test: Chessboard method, synergistic inhibitory effect of two monomers (FIC); settings: monomer used alone, 72 hours
# Description: The compositions 1, 2, 3, 4 and 5 are prepared according to Examples 1, 2, 3, 4 and 5, respectively. • 1.2. Strain • (1) Helicobacter pylori strains: standard strains 26695, NSH57, MSD132 and G27 are presented by Dr. Hongkai Bi of Nanjing Medical University; clinical metronidazole drug-resistant strains, clarithromycin drug-resistant strains, levofloxacin drug-resistant strains, levofloxacin and metronidazole drug-resistant strains, clarithromycin and metronidazole drug-resistant strains, levofloxacin and clarithromycin and metronidazole multi drug-resistant strains (HPBS001, HPBS002, HPBS003, and the like) are provided by the Research Center for the Prevention and Treatment of Drug Resistant Microbial Infections of Youjiang Medical University for Nationalities. • (2) Non Helicobacter pylori strains: Staphylococcus aureus, Escherichia coli, Pseudomonas aeruginosa, Acinetobacter baumannii, Klebsiella pneumoniae, Candida albicans, Enterobacter cloacae, Campylobacter jejuni, Bacillus subtilis, Proteus mirabilis, Lactobacillus campylobacter, Stenotrophomonas maltophilia, Morganella morganii, Candida tropicalis, Staphylococcus haemolyticus, Acetobacter, Saccharomyces cerevisiae, Enterobacter hormaechei well is provided by the Research Center for the Prevention and Treatment of Drug Resistant Microbial Infections of Youjiang Medical University for Nationalities. • 1.3 Main culture media and reagents: Columbia culture medium, Brain Heart Infusion Broth, nutrient agar culture medium, nutrient broth culture medium, MH culture medium, Sabouraud culture medium, standard calf serum. • 1.4 Main instruments: three gas incubator, centrifuge, microplate reader, electronic balance, and the like. • 1.5 Consumable materials: EP tube, tip, centrifuge tube, and the like. • 2. […]
# [1] = tested on: Helicobacter pylori G27 strain; test: Drug resistance test, induction with 1/4 MIC for 24 days
# Source text: Note: In 6:1:3 group, “>” refers to greater than 46.1+7. 7+23.1. • 2.4 Drug Resistance Test of Prepared 6:1:3 Composition • (1) The drug resistance of […] is detected with Helicobacter pylori G27 strain.
# [2] = Helicobacter pylori, read-out: MIC
Compound,MIC (Helicobacter pylori (Hp); [2]) [mg/L],MIC (Helicobacter pylori; [2]) [mg/L],further results
"COc1ccc2cc3[n+](cc2c1OC)CCc1cc2c(cc1-3)OCO2 [Berberine, berberine]",16 to 32,16,
Cc1ncc([N+](=O)[O-])n1CCO [metronidazole],,,"MIC ([1]; Helicobacter pylori, G27STRAIN, before induction): 2 mg/L; MIC increase after induction ([1]; after 24 days of induction with 1/4 MIC, FIG. 3): 64 times"
"Cc1coc2c1C(=O)C(=O)c1c-2ccc2c(C)cccc12 [Tanshinone I, tanshinone I]",,,MIC (Helicobacter pylori (Hp)): 0.5 to 1 mg/L; MIC (Helicobacter pylori): Tanshinone I (1 μg/mL)
"COc1ccc2c(OC)c3ccoc3nc2c1 [Evolitrine, evolitrine]",16 to 32,32,
